Results as given in US20250092395A1, “A GLUN2D INHIBITOR FOR USE IN THE TREATMENT OR RELAPSE PREVENTION OF A DEPRESSIVE EPISODE” (priority 2022, published 2025).
“Also recorded” adds a separate entry of the source. Counter-ions that a name gives are not always drawn.

Experiments:
[1] = test system: mice subjected to the chronic despair model (CDM); test: Chronic despair model (CDM) swim test, immobility time; format: in vivo; details: CDM mice, test day
Method: Induction phase: Mice were forced to swim in a glass cylinder (0 26 cm, 60 cm high) filled to 25 cm with 25° C. warm water for 10 min on 5 consecutive days. After the swimming, the animals were kept in their cages for two days before treatment and experiment readout was performed. The immobility time was measured in each session.
Behavioral Readout: After the treatment intervention, animals were either tested in an additional swim session (test day) to measure immobility time or tested in the InteliCage using the Nose-pokes sucrose preference test. For the assessment of the immobility time, mice were videotaped and two independent raters who were blinded to the experimental group analyzed the videos. Immobility time was defined as the cumulative time that the animals spend stationary with only enough movements of the tails or the forepaws to keep the head above the water surface. No distance is actively travelled except for passive floating, no directed movement of the front paws observed and the body of the animal mostly oriented parallel to the walls of the cylinder.

[2] = test system: CA3-CA1 synapse, CA1 pyramidal neurons in hippocampal brain slices; test: LTP/LTD protocols and wash-in in brain slices of unstressed mice, substance in bathing solution; format: cell-based; details: for LTP inducibility, associative LTP protocol (aLTP): bath with picrotoxin, R,S-ketamine 10 μM, S-ketamine 5 μM
[3] = test system: NMDAR currents in CA1 pyramidal cells; test: NMDAR currents in voltage-clamp recordings, CA1 pyramidal cells; format: cell-based, mice; details: +40 mV, CNQX, bath application 10 μM
Method: After 20 min resting time at 35° C., slices were kept at room temperature in aCSF and transferred into the recording chamber (volume approx. 2-3 ml) and continuously superfused with aCSF (rate approx. 5-10 ml/min-). Differential interference contrast video microscopy was used to identify location of CA1 pyramidal neurons (Zeiss Axioskop 2 FS plus, Zeiss Microscopy, Germany). Beside optical identification neurons were classified according to their characteristic firing frequency adaptation to long depolarising current pulses. Borosilicate glass tubes (2.0 mm outer diameter, 0.5 mm wall thickness; Hilgenberg, Germany) were used to pull patch pipettes. Pipettes with a resistance of 5-10 MΩ were used and series resistance of 10-50 MΩ was compensated by bridge balance. Patch pipettes were filled with an internal solution containing (in mM) for EPSP-measurements: 132K-gluconate, 20KCL, 2MgCl2, 10Hepes, 0.1EGTA, 4 Na2ATP, 0.3NaGTP. PH was adjusted to 7.2 with KOH. For current measurements: 135Csgluconate, 2CsCl, 5 QX314, 10 Hepes, 10EGTA, 2MgCl2, 2Na2ATP, 2TEACI, pH was adjusted to 7.2 with HCl. Osmolarity (280-300 mosmol/1) was controlled at the beginning of each experimental day with Osmomat (Gonotec GmbH, Germany).

[4] = test system: SOM-dependent feedback loop, CA1 PCs; test: Feedback loop-activating protocol (FLAP) in CA1 PCs; format: cell-based, mice; details: for synaptic AP probability (conversion of EPSPs to APs) in FLAP: 10 μM washed in, 10-30 min vs baseline; for EPSP amplitude in the FLAP: wash-in of 10 μM after 10 min baseline
Method: A 300 ms depolarizing current between +100 and +[…] was injected via the patch pipette into a PC to elicit a train of 5-10 APs. After an interval of 600 ms, one EPSP (5-10 mV amplitude) was elicited by Schaffer collateral stimulation. This pattern was continuously repeated at a frequency of 0.2 Hz. Substances were added by bath application after a stable 10 min baseline recording for an additional 20 min. For data analysis the maximum EPSP amplitudes from minutes 0-10 were averaged and compared to averaged maximum EPSP amplitudes from minutes 20-30.
The slope of the EPSP rise at 20% to 40% of its maximal amplitude, at which point an approximately linear increase in its voltage could be assumed, was fitted with Fitmaster software (HEKA, Germany). We analyzed 20 EPSPs before and 20 EPSPs 25-30 minutes after NAB-14 wash-in in the FLAP protocol for each experiment. The coefficient of variation (CV) is the standard deviation of the EPSP slopes divided by the mean. The inverse square of the CV of the postwash-in slopes was divided by the inverse square of the prewash-in slopes and plotted against the corresponding normalized slopes. Pre- and postwash-in measurements from a single experiment are connected by a line. In a standard quantal model for synaptic transmission, synaptic responses are affected either by presynaptic changes in the number of release sites and/or the probability of release or by modifications of the postsynaptic response to a single […]. A change in the ratio of CV-2 reflects a presynaptic action, whereas horizontal lines in the CV-2 plot indicate a change in postsynaptic responsiveness.

[5] = test system: NMDAR currents in somatostatin positive Interneurons (SOM); test: NMDAR currents in voltage-clamp recordings, SOM interneurons; details: +40 mV, CNQX, bath application 10 μM
[6] = unstressed mice, NAB-14 in bathing solution

In the case of `CCN(CC)C(=O)Oc1ccc(C(=O)Nc2cccc3cc[nH]c23)cc1` [NAB-14], the immobility time ([1]; injection of NAB-14 (5/10 μM as printed)) is reported as “significantly reduced”, the “EPSP amplitude after aLTD stimulation” value [2, 6] is reported as “strongly increased the EPSP amplitude; also recorded: significant increase” and the “basal EPSP-amplitude / synaptic transmission” value [2, 6] is reported as “did not change synaptic transmission; also recorded: did not affect basal EPSP-amplitude”. For the same compound, the “IiLTP induced increase of EPSP amplitude” value ([2]; unstressed mice, NAB-14 in bathing solution, vs control IiLTP) was “increased IiLTP; also recorded: enhance IiLTP induced increase of EPSP amplitude significantly”, the “amplitude of NMDAR currents in CA1 pyramidal cells” value (shortened to “amplitude … in CA1 pyramidal cells”) [3] was “no relevant NMDAR reduction” and the “synaptic AP probability (conversion of EPSPs to APs) in FLAP” value [4] was “significant increase in synaptic AP probability”. For the same compound, the “PC excitability: number of APs during the burst and input resistance (Rm)” value ([4]; NAB-14 10 μM in FLAP) was “did not significantly change; also recorded: no significant alteration in AP number; also recorded: no significant change in postsynaptic input resistance”, the “coefficient of variation (CV) analysis of EPSP slopes before and after wash-in” value ([4]; NAB-14 wash-in in FLAP) was “consistent with a postsynaptic mechanism” and the “EPSP amplitude in the FLAP” value [4] was “significantly increased; also recorded: increased significantly”. The “amplitude of NMDAR currents in SOM interneurons” value (“amplitude … in SOM interneurons” below) [5] was “significantly reduced; also recorded: reduce the amplitude of NMDAR currents in SOMs”.
In the case of `CNC1(c2ccccc2Cl)CCCCC1=O` (stereo not shown) [R,S-ketamine, R,S-Ketamine hydrochloride], the immobility time ([1]; 10 mg/kg R,S-ketamine intraperitoneal, vs control) is reported as “significantly reduced”, the LTD induction [2] is reported as “could be blocked” and the “paired-pulse ratio (PPR, EPSP2/EPSP1) before and after weak-aLTP (li-LTP) induction” value [2] is reported as “unchanged”. The “EPSP amplitude after associative LTD protocol (aLTD, NMDAR-independent)” value ([2]; hydrochloride) was “unaffected; also recorded: neither R,S-ketamine (10 μM) nor S-ketamine (5 μM) had an effect”, the “LTD inducibility, non-associative 1 Hz LTD protocol (NMDAR-dependent)” value ([2]; hydrochloride) was “fully blocked; also recorded: abolished” and the “LTP inducibility, non-associative 100 Hz LTP protocol” value ([2]; hydrochloride) was “significant blockade of inducibility of LTP”. For the same compound, the aLTP induction ([2]; hydrochloride) was “neither K nor SK blocked aLTP induction; also recorded: not affected”, the “low intensity LTP (IiLTP) induction” value ([2]; hydrochloride) was “blocked LTP induction; also recorded: blockade of LTP induction” and the “low intensity LTP (IiLTP), EPSP amplitude” value ([2]; hydrochloride) was “significant increase in EPSP amplitude; also recorded: even enhanced LTP induction”. The “LTP inducibility, associative LTP protocol (aLTP)” value ([2]; unstressed mice, hydrochloride) was “significant blockade of inducibility of LTP”, the “LTP inducibility, associative LTP protocol (aLTP)” value ([2]; unstressed mice, listed as K, hydrochloride) was “complete inhibition of LTP” and the “amplitude … in CA1 pyramidal cells” value ([3]; hydrochloride) was “reduced the amplitude”. The “amplitude … in CA1 pyramidal cells” value ([3]; listed as R,S-Ketamine, hydrochloride) was “significantly blocking NMDAR currents in CA1 cells”, the “synaptic AP probability (conversion of EPSPs to APs) in FLAP” value ([4]; hydrochloride) was “higher percentage of APs; also recorded: significant increase in synaptic AP probability” and the “EPSP amplitude in the FLAP” value ([4]; hydrochloride) was “dramatically increased”. For the same compound, the “EPSP amplitude in the FLAP” value ([4]; listed as ketamine, hydrochloride) was “increased significantly”, the “amplitude … in SOM interneurons” value ([5]; hydrochloride) was “significantly stronger than in CA1 pyramidal cells; also recorded: significantly more pronounced in SOMs than in PCs” and the “amplitude … in SOM interneurons” value ([5]; listed as Ketamine, hydrochloride) was “significantly more pronounced inhibitory effect”.
